{
  "source": "patent US11078165B2",
  "about": "(priority 2017, dated 2021)",
  "key": {"[1]": {"tested_on": "M. smegmatis mc^2 155", "assay": "Minimum inhibitory concentration, broth micro dilution", "assay_type": "cell-based, Mycobacterium smegmatis", "conditions": "Mycolicibacterium smegmatis, MC^2155; M. smegmatis growth, 24 h; read-out: MIC50 [μM], bacterial growth"}, "[2]": {"target": "F-ATP synthase of inverted membrane vesicles (IMV) of M. smegmatis", "sequence (A0R203 whole entry)": "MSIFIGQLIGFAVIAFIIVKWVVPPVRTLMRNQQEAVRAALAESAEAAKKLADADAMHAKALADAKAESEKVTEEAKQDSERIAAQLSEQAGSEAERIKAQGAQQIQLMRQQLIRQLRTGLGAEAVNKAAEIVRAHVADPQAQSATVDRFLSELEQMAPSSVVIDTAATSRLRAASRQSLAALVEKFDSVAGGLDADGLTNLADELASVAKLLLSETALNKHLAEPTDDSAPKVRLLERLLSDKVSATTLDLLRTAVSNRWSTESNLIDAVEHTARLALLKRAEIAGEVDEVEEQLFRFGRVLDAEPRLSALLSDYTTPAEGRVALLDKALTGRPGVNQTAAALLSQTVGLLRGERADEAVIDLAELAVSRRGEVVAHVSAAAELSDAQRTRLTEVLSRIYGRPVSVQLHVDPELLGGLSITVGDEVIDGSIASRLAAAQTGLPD", "sequence (A0R1Z9 whole entry, further chain)": "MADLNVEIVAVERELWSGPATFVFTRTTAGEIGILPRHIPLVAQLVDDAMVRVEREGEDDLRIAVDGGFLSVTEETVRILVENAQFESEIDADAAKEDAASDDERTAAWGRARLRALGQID", "sequence (A0R200 whole entry, further chain)": "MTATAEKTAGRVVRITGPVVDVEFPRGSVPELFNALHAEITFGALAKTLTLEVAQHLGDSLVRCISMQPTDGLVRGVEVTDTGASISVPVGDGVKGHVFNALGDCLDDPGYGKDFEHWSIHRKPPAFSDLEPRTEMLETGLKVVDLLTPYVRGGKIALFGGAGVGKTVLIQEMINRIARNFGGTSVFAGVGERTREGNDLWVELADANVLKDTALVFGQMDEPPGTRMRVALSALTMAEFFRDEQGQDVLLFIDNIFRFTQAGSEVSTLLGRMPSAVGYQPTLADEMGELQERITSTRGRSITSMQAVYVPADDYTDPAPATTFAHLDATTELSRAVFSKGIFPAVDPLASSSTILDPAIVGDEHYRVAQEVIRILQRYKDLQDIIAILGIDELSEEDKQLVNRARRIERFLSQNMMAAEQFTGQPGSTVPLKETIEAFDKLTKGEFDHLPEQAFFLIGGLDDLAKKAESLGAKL", "sequence (A0R201 whole entry, further chain)": "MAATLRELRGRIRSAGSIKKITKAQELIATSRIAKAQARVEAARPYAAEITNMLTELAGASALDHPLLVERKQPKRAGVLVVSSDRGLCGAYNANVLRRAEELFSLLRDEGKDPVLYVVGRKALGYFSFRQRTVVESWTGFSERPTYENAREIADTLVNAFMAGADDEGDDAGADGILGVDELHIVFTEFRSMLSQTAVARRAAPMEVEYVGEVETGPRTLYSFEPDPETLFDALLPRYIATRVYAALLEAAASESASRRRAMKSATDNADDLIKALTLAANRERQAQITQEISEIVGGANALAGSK", "sequence (A0R202 whole entry, further chain)": "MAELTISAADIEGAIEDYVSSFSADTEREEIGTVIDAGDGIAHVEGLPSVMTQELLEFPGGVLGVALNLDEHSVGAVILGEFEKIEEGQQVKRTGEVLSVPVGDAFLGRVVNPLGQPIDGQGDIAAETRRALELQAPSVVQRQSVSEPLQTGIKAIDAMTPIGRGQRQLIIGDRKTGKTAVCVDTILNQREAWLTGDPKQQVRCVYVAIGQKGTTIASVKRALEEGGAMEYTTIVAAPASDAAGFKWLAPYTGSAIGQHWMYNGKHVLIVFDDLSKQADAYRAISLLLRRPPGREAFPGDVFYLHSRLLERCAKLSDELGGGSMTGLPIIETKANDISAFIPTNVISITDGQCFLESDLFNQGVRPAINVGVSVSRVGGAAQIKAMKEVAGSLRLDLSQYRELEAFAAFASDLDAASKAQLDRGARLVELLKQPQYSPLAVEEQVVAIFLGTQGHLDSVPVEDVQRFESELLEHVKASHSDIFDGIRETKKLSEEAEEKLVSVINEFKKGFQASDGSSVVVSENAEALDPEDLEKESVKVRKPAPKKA", "assay": "ATP synthesis assay with inverted membrane vesicles", "conditions": "read-out: IC50 [μM], effect on ATP synthesis, IMVs of M. smegmatis"}, "[3]": {"tested_on": "IMVs of M. phlei", "conditions": "reported [1], read-out: IC50, ATP synthesis; cited from earlier work"}, "[4]": {"tested_on": "M. bovis BCG", "assay": "microbe, parasite or virus in culture", "assay_type": "cell-based, Mycobacterium bovis", "conditions": "for ATP synthesis (luminescence): FIG. 3C; for IC50: Mycobacterium tuberculosis variant bovis BCG, BCG, FIG. 3D"}, "[5]": {"tested_on": "extracellular oxygen consumption", "assay": "Oxygen consumption rate", "assay_type": "cell-based"}, "[6]": {"assay": "Mouse liver microsome stability", "assay_type": "in vitro ADME", "conditions": "for half-life: mouse, liver microsomes"}},
  "note": "Like-named read-outs stand apart in the source and are kept apart here.",
  "data": [
    {"smiles": "CNc1cc(C)nc(Nc2ccc(NC(=O)c3cccc(Br)c3)cc2)n1", "note": "[Br Me, 3-bromo-N-(4-((4-methyl-6-(methylamino)pyrimidin-2-yl)amino)phenyl)benzamide]", "values": [
      {"measurement": "MIC50", "setting": "[1]", "result": "12.4 ± 0.56", "unit": "µM"},
      {"measurement": "IC50", "setting": "[2]", "result": "0.39 ± 0.06", "unit": "µM"},
      {"measurement": "melting point", "result": "301 to 303", "unit": "°C"}
    ]},
    {"smiles": "CCNc1nc(Nc2ccc(NC(=O)c3ccccc3)cc2)ncc1C", "note": "[H T Et, N-(4-((4-(ethylamino)-5-methylpyrimidin-2-yl)amino)phenyl)benzamide]", "values": [
      {"measurement": "MIC50", "setting": "[1]", "result": "39 ± 1.91", "unit": "µM"},
      {"measurement": "IC50", "setting": "[2]", "result": "0.9 ± 0.06", "unit": "µM"},
      {"measurement": "melting point", "result": "> 230", "unit": "°C"}
    ]},
    {"smiles": "Cc1cc(NC(C)C)nc(Nc2ccc(NC(=O)c3cccc(Br)c3)cc2)n1", "note": "[Br iso, 3-bromo-N-(4-((4-(isopropylamino)-6-methylpyrimidin-2-yl)amino)phenyl)benzamide]", "values": [
      {"measurement": "MIC50", "setting": "[1]", "result": "50.1 ± 4.5", "unit": "µM"},
      {"measurement": "IC50", "setting": "[2]", "result": "2.69 ± 0.21", "unit": "µM"},
      {"measurement": "melting point", "result": "183 to 185", "unit": "°C"}
    ]},
    {"smiles": "CCNc1cc(C)nc(Nc2ccc(NC(=O)c3cccc(O)c3)cc2)n1", "note": "[3OH U Et, N-(4-((4-(ethylamino)-6-methylpyrimidin-2-yl)amino)phenyl)-3-hydroxybenzamide]", "values": [
      {"measurement": "MIC50", "setting": "[1]", "result": "79.6 ± 9.13", "unit": "µM"},
      {"measurement": "IC50", "setting": "[2]", "result": "1.16 ± 0.09", "unit": "µM"},
      {"measurement": "melting point", "result": "283 to 285", "unit": "°C"}
    ]},
    {"smiles": "CCNc1nc(Nc2ccc(NC(=O)c3cccc(Br)c3)cc2)ncc1C", "note": "[Br T Et, 3-bromo-N-(4-((4-(ethylamino)-5-methylpyrimidin-2-yl)amino)phenyl)benzamide]", "values": [
      {"measurement": "MIC50", "setting": "[1]", "result": "12.3 ± 0.73", "unit": "µM"},
      {"measurement": "IC50", "setting": "[2]", "result": "0.62 ± 0.08", "unit": "µM"},
      {"measurement": "melting point", "result": "> 230", "unit": "°C"}
    ]},
    {"smiles": "CCOC(=O)CNc1cc(C)nc(Nc2ccc(NC(=O)c3cccc(Br)c3)cc2)n1", "note": "[Br Gly, ethyl (2-((4-(3-bromobenzamido)phenyl)amino)-6-methylpyrimidin-4-yl)glycinate]", "values": [
      {"measurement": "MIC50", "setting": "[1]", "result": "15.5 ± 1.52", "unit": "µM"},
      {"measurement": "IC50", "setting": "[2]", "result": "2.01 ± 0.16", "unit": "µM"},
      {"measurement": "melting point", "result": "> 230", "unit": "°C"}
    ]},
    {"smiles": "Cc1cc(NCCO)nc(Nc2ccc(NC(=O)c3cccc(Br)c3)cc2)n1", "note": "[Br EtOH]", "values": [
      {"measurement": "MIC50", "setting": "[1]", "result": "19 ± 1.5", "unit": "µM"},
      {"measurement": "IC50", "setting": "[2]", "result": "0.42 ± 0.03", "unit": "µM"},
      {"measurement": "melting point", "result": "237 to 241", "unit": "°C"}
    ]},
    {"smiles": "COc1nc2ccc(Br)cc2cc1[C@@H](c1ccccc1)[C@@](O)(CCN(C)C)c1cccc2ccccc12", "note": "[BDQ, 1-(6-bromo-2-methoxy-quinolin-3-yl)-4-dimethylamino-2-naphthalen-1-yl-1-phenyl-butan-2-ol]", "values": [
      {"measurement": "IC50", "setting": "[3]", "result": "0.02 to 0.025", "unit": "µM"},
      {"measurement": "ATP synthesis (luminescence)", "setting": "[4]; 12.5 nM BDQ in the presence of 37.5 μM of cpd 6", "result": "6.5×10^3 RLU"},
      {"measurement": "ATP synthesis (luminescence)", "setting": "[4]; BDQ alone at 200 nM, drug-free 3.7×10^4 RLU", "result": "8×10^3 RLU"},
      {"measurement": "IC50", "setting": "[4]; read-out: IC50 value of BDQ, BDQ alone", "result": 0.042, "unit": "µM"},
      {"measurement": "IC50", "setting": "[4]; read-out: IC50 value of BDQ, in combination with cpd 6", "result": 0.00236, "unit": "µM"},
      {"measurement": "concentration inhibiting extracellular oxygen consumption", "setting": "[5]; BDQ alone", "result": "about 500 nM"},
      {"measurement": "concentration needed for similar inhibition of oxygen consumption", "setting": "[5]; BDQ in combination with 40 μM of cpd 6", "result": 50, "unit": "nm"}
    ]},
    {"smiles": "CCNc1ccnc(Nc2ccc(NC(=O)c3cccc(Br)c3)cc2)n1", "note": "[Br desMe, 3-bromo-N-(4-((4-(ethylamino)pyrimidin-2-yl)amino)phenyl)benzamide]", "values": [
      {"measurement": "MIC50", "setting": "[1]", "result": "16.8 ± 2.6", "unit": "µM"},
      {"measurement": "IC50", "setting": "[2]", "result": "1.03 ± 0.25", "unit": "µM"},
      {"measurement": "melting point", "result": "229 to 231", "unit": "°C"}
    ]},
    {"smiles": "CCNc1cc(C)nc(Nc2ccc(NC(=O)c3ccc(C)cc3)cc2)n1", "note": "[4Me U Et, N-(4-((4-(ethylamino)-6-methylpyrimidin-2-yl)amino)phenyl)-4-methylbenzamide]", "values": [
      {"measurement": "MIC50", "setting": "[1]", "result": "31.8 ± 7.8", "unit": "µM"},
      {"measurement": "IC50", "setting": "[2]", "result": "0.39 ± 0.02", "unit": "µM"},
      {"measurement": "melting point", "result": "297 to 300", "unit": "°C"}
    ]},
    {"smiles": "CCc1nc2ccc(Cl)cn2c1C(=O)NCc1ccc(N2CCC(c3ccc(OC(F)(F)F)cc3)CC2)cc1", "note": "[Q203, 6-chloro-2-ethyl-N-[[4-[4-[4-(trifluoromethoxy)phenyl]piperidin-1-yl]phenyl]methyl]imidazo[1,2-a]pyridine-3-carboxamide]", "values": [
      {"measurement": "effect of Q203 in the presence of cpd 6", "setting": "[4]; ATP synthesis, FIG. 3E", "result": "additive effect"},
      {"measurement": "concentration for complete inhibition of oxygen consumption", "setting": "[5]; Q203 in combination with 40 μM of cpd 6", "result": 100, "unit": "nM"}
    ]},
    {"smiles": "CCNc1cc(C)nc(Nc2ccc(NC(=O)c3ccccc3)cc2)n1", "note": "[H U Et, N-(4-((4-(ethylamino)-6-methylpyrimidin-2-yl)amino)phenyl)benzamide]", "values": [
      {"measurement": "MIC50", "setting": "[1]", "result": "26.9 ± 1.39", "unit": "µM"},
      {"measurement": "IC50", "setting": "[2]", "result": "1.65 ± 0.16", "unit": "µM"},
      {"measurement": "melting point", "result": "225 to 226", "unit": "°C"}
    ]},
    {"smiles": "CCNc1cc(C)nc(Nc2ccc(NC(=O)c3ccc(OC)cc3)cc2)n1", "note": "[4OMe U Et, N-(4-((4-(ethylamino)-6-methylpyrimidin-2-yl)amino)phenyl)-4-methoxybenzamide]", "values": [
      {"measurement": "whole cell ATP synthesis inhibition versus drug free control", "setting": "[4]; analog in combination with BDQ, FIG. 6A, 6B", "result": "significant increase in the inhibition"},
      {"measurement": "MIC50", "setting": "[1]", "result": "17.3 ± 2.26", "unit": "µM"},
      {"measurement": "IC50", "setting": "[2]", "result": "0.69 ± 0.06", "unit": "µM"},
      {"measurement": "melting point", "result": "285 to 288", "unit": "°C"}
    ]},
    {"smiles": "CCNc1nc(Nc2ccc(NC(=O)c3cccc(F)c3)cc2)ncc1C", "note": "[F T Et, N-(4-((4-(ethylamino)-5-methylpyrimidin-2-yl)amino)phenyl)-3-fluorobenzamide]", "values": [
      {"measurement": "MIC50", "setting": "[1]", "result": "43.5 ± 3.57", "unit": "µM"},
      {"measurement": "IC50", "setting": "[2]", "result": "0.92 ± 0.04", "unit": "µM"}
    ]},
    {"smiles": "CCNc1nc(C)cc(Nc2ccc(NC(=O)c3cccc(Br)c3)cc2)n1", "note": "[Br U Et iso (Cpd 6 iso), 3-bromo-N-(4-((2-(ethylamino)-6-methylpyrimidin-4-yl)amino)phenyl)benzamide]", "values": [
      {"measurement": "MIC50", "setting": "[1]", "result": "20.8 ± 1.9", "unit": "µM"},
      {"measurement": "IC50", "setting": "[2]", "result": "0.38 ± 0.03", "unit": "µM"},
      {"measurement": "melting point", "result": "260 to 264", "unit": "°C"}
    ]},
    {"smiles": "CCNc1cc(C)nc(Nc2ccc(NC(=O)c3cccc(F)c3)cc2)n1", "note": "[F U Et, N-(4-((4-(ethylamino)-6-methylpyrimidin-2-yl)amino)phenyl)-3-fluorobenzamide]", "values": [
      {"measurement": "MIC50", "setting": "[1]", "result": "18.7 ± 1.25", "unit": "µM"},
      {"measurement": "IC50", "setting": "[2]", "result": "0.26 ± 0.05", "unit": "µM"},
      {"measurement": "melting point", "result": "259 to 263", "unit": "°C"}
    ]},
    {"smiles": "CCNc1cc(C)nc(Nc2ccc(NC(=O)c3cccc(Br)c3)cc2)n1", "note": "[Cpd 6, 3-bromo-N-(4-((4-(ethylamino)-6-methylpyrimidin-2-yl)amino)phenyl)benzamide]", "values": [
      {"measurement": "microsomal CLint", "setting": "[6]; mouse liver microsomes", "result": 14.6, "unit": "µL/min/mg"},
      {"measurement": "half-life", "setting": "[6]; read-out: T½", "result": 47.5, "unit": "min"},
      {"measurement": "half-life", "setting": "[6]; without NADPH, read-out: T½ w/o NADPH", "result": 68, "unit": "min"}
    ]}
  ]
}
